# Values quoted from earlier work in US8007545B2, “Deodorant compositions” (Kao Corporation, priority 2005, dated 2011).
# Conditions: 1-octanol/water; actual database value or C log P
row,SMILES,log P
1,"CCCCCCOC(CO)COCC(O)CO (stereo not drawn) [b3-1, Glyceryl ether monohexyl ether]",1.1
2,"CCCCC(CC)COCC(O)CO (stereo not drawn) [b3-2, 2-Ethylhexyl monoglyceryl ether]",2.0
3,"CCCCOCCOCCO [b3-3, Diethylene glycol monobutyl ether]",0.6
